PubChem BioAssay AID1996
In brackets after ≈: the same amount, converted by molar mass.

Conditions: buffer; pH 7.4; 200.0 µM

Structure (SMILES)	solubility kinetic [µg/mL]
Cc1ccc(NC(=O)C(C)Sc2nnc3ccccn23)cc1 (centres undefined)	> 46.9
CCC(=O)Nc1ccc(NC(=O)CCc2ccccc2)cn1	44.5 (≈ 150 µM)
CC(C)NC(=O)c1ccc(CSCc2ccccc2Cl)o1	> 48.6
Br.Cc1ccc(C2Cc3cc(O)c(O)cc3CN2)cc1 (centres undefined)	44.3
S=c1[nH]nc(Nc2ccccc2)s1	> 31.4
C=Cn1cc[n+](CC(=O)c2ccc(OC)c(OC)c2)c1.[Br-]	> 53
Cc1ccccc1S(=O)(=O)/N=C(/Nc1nc2ccccc2s1)c1ccccc1	1.1 (≈ 2.7 µM)
O=C(NCCc1ccccc1F)c1cccc2cccnc12	31.4 (≈ 107 µM)
COc1ccc(CCOC(=O)c2cccc(NC(C)=O)c2)cc1	> 47
CSCC[C@H](NC(=O)Nc1ccc(OC(F)(F)F)cc1)C(=O)O	> 52.8
C=CCNC(=S)Nc1ccc(N(C)C)cc1	> 35.3
Cc1cc(C)nc(/N=C(\N)Nc2ccc(OCCC(C)C)cc2)n1	> 49.1
Fc1ccccc1NC(=S)NCCc1ccc(Cl)cc1	39 (≈ 126 µM)
Cc1cc(=O)[nH]c(SCc2ccccc2)n1	> 34.8
COc1cc(C(=O)Cc2nc3ccccc3n2C)cc(OC)c1OC	> 51.1
COc1ccc(CC2CC(=O)N(c3ccc(C)cc3)C2=O)cc1 (centres undefined)	4.4 (≈ 14.2 µM)
CC(C)CC(=O)Nc1sc2c(c1C(=O)O)CCCCC2	42 (≈ 142 µM)
Cc1cccc(OCC(=O)Nc2ccncc2)c1C	37.8 (≈ 147 µM)
NC(=O)CSc1nc2ccccc2c(=O)n1-c1ccccc1	> 46.7
Cc1c(Cl)cccc1NC(=S)NCCc1ccccn1	> 45.9
Cc1cc(C)cc(NC(=O)CCc2ccc(C)o2)c1	34.6 (≈ 134 µM)
COc1ccc(OC)c(NC(=O)Cc2cccs2)c1	30.4 (≈ 110 µM)
O=C(O)CSc1ccnc2cc(Cl)ccc12	> 38.1
Cl.Clc1ccc2[nH]c3c(c2c1)CCNC3	32.4

Structure (SMILES)	solubility kinetic [µg/mL]
Cc1cc(C)cc(NC(=O)NC2CCCCCCC2)c1	1 (≈ 3.64 µM)
N=C1SCC(=O)N1c1ncc(Cc2ccccc2Cl)s1	2.2 (≈ 6.79 µM)
Cc1ccc(NC(=O)CO/N=C/c2ccccc2C)c(C)c1	8.7 (≈ 29.4 µM)
CCN(CC(=O)NCc1cccs1)C(=O)Cc1ccc(Cl)c(Cl)c1	> 57.8
Cc1ccc(C(=O)CCC(=O)Nc2ccc(C)cn2)cc1	3.4 (≈ 12 µM)
CN(C)c1ccc(C(CN)c2c[nH]c3ccccc23)cc1 (centres undefined)	30.2 (≈ 108 µM)
COC(=O)c1ccc(NC(=O)c2cccc(NC(=O)c3ccco3)c2)cc1	< 0.4
CC(=O)c1c(-c2ccccc2)c2ccccc2[nH]c1=O	15.1 (≈ 57.3 µM)
C[N+](C)(C)CC#CCOC(=O)Nc1cccc(Cl)c1.[Cl-]	> 47.6
O=C(NC1CC1)c1cc(Cl)nc2ccccc12	> 37
CC(=O)N(C)N(C)c1cc(C)nc(N)n1	> 31.4
O=[N+]([O-])c1ccccc1O[C@@H]1O[C@H](CO)[C@H](O)[C@H](O)[C@H]1O	> 45.2
COc1ccc(NC(=O)c2cc(C)cc(C)c2)cc1[N+](=O)[O-]	< 0.3
N#C/C(=C\c1ccc2c(c1)OCO2)C(N)=S	5.8 (≈ 25 µM)
O=C(NCc1ccc2c(c1)OCO2)c1sccc1Br	48.4 (≈ 142 µM)
CCN1C(=O)CC(c2cccnc2)=Nc2ccccc21	> 39.8
CC1CCCC(NC(=S)NC(=O)c2ccco2)C1C (centres undefined)	5.4 (≈ 19.3 µM)
CCC(=O)Oc1ccc(NC(=O)c2ccco2)cc1	> 38.9
Cc1c(Cc2ccccc2)sc(NC(=O)C(C)(C)C)c1C(N)=O	17.7 (≈ 53.6 µM)
COc1ccc(CCNc2nc(-c3ccncc3)cs2)cc1OC	35.9 (≈ 105 µM)
Cc1ccc(C(=O)COC(=O)c2cc(=O)[nH]c3ccccc23)cc1	1.1 (≈ 3.42 µM)
CCCN(CC1CCCO1)C(=O)CCc1nnc(-c2cc(C)on2)o1 (centres undefined)	> 52.3
Cc1ccc(NC(=O)CNC(=O)c2ccc(C)s2)nc1	> 43.4
OC[C@H]1O[C@@H](n2cnc3c(Nc4ccccc4)ncnc32)[C@H](O)[C@@H]1O	> 51.5

Structure (SMILES)	solubility kinetic [µg/mL]
Cc1ccc(C)c(C(C)NC(=O)c2ccc(Br)o2)c1 (centres undefined)	42.1 (≈ 131 µM)
OC(c1nnc(-c2ccccc2)o1)c1cccs1 (centres undefined)	> 38.7
COc1cc(C(=O)O)nc(OC)n1	> 27.6
Cc1cc(=O)oc2cc(OCCC[n+]3ccccc3)ccc12.[Br-]	53.6
CC(=O)c1sc2nc(CSc3nncn3C)[nH]c(=O)c2c1C	> 50.3
O=C(COc1ccc(Cl)cc1)NCCc1cnc[nH]1	> 42
COc1ccc(OCCNC(=O)CCCO)cc1	4 (≈ 15.8 µM)
COc1cccc(/C=C2\SC(N3CCC(C)CC3)=NC2=O)c1OC	21.5 (≈ 62.1 µM)
O=Cc1ccnc(-c2ccc(OC(=O)c3ccco3)cc2)n1	33.1 (≈ 113 µM)
COc1cc(CC(=O)OCC(=O)NCc2ccco2)cc(OC)c1OC	> 54.5
C=CCNC(=O)C(=O)NCC1CCCN1CC (centres undefined)	> 35.9
Cc1cc(SCC(=O)Nc2cccnc2Cl)nc2ccccc12	< 0.2
CSc1ccccc1NC(=O)Nc1ccccc1Cl	1.7 (≈ 5.81 µM)
O=C(O)c1ccccc1-c1ccccc1C(=O)Nc1ccccc1-c1ccccc1	> 59
CCCCCCN1C=CC(=C2C(=O)c3ccccc3C2=O)C=C1	< 0.7
CC(C)=C(NC(=O)c1ccccc1)C(N)=O	> 32.7
CCOC(=O)c1ccccc1CN1C(=O)c2ccccc2S1(=O)=O	< 0.7
CC(C)(C)NC(=O)C(=O)NCc1ccccn1	> 35.3
CC1(C)c2cc(Cl)ccc2-n2c1cc(O)c(-c1ccccc1)c2=O	47.8 (≈ 142 µM)
C[N+](C)(C)CC(O)CC(=O)O.[Cl-] (centres undefined)	> 29.6
O=C(Nc1ccc(NC(=O)c2ccccc2O)cc1)Nc1ccc(F)cc1F	1.1 (≈ 2.87 µM)
Cc1cc(Cl)c2cc3ccccc3cc2n1	0.9 (≈ 3.95 µM)
O=C(Cc1ccc(O)cc1)N/N=C/c1cccnc1	> 38.3
Cc1ccccc1C(=O)N1c2ccccc2OCC1C(C)(C)C (centres undefined)	< 0.7

The next lines start with the values.

solubility kinetic [µg/mL]	Structure (SMILES)
> 45.5	O=C(CN1C(=O)COc2ccccc21)NCCN1CCCC1
50.4 (≈ 145 µM)	CCOC(=O)c1cc(NCc2cccs2)ccc1N1CCOCC1
> 31.4	CC1(C)CC(=O)C=C(N2CCOCC2)C1
11.3 (≈ 35.9 µM)	CC1=C(C(=O)OC2CCCCC2)C(c2ccccc2)NC(=O)N1 (centres undefined)
19.3 (≈ 60.6 µM)	CC1(C)CC(c2nc(-c3ccc([N+](=O)[O-])cc3)cs2)CCO1 (centres undefined)
0.5 (≈ 1.28 µM)	O=S(=O)(c1ccccc1)N1CCN(C(=S)NCCc2ccccc2)CC1
4.7 (≈ 14 µM)	O=C(c1cccs1)N1CCN(c2ccc([N+](=O)[O-])cc2F)CC1
> 37.9	CC(CN1CCCCC1)NC(=O)c1cccs1 (centres undefined)
48.2 (≈ 133 µM)	Cc1cccc(NC(=O)c2ccc(S(=O)(=O)N3CCOCC3)cc2)n1
27.7 (≈ 110 µM)	Fc1ccccc1OCCCCN1CCCCC1
1.1 (≈ 4.29 µM)	COC(=O)/C(C#N)=C\c1c(OC)[nH]c2ccccc12
26.1 (≈ 59.7 µM)	O=C(COC(=O)c1ccc(Cl)c(S(=O)(=O)N2CCCC2)c1)NCc1ccccc1
> 48.3	CN(C(=O)c1ccc(Br)o1)C1CCS(=O)(=O)C1 (centres undefined)
42.2 (≈ 109 µM)	O=C(Nc1ccc(N2CCOCC2)cc1N1CCOCC1)c1ccc(F)cc1
41.1 (≈ 113 µM)	O=S(=O)(c1ccc(F)cc1)N1CCN(CCOc2ccccc2)CC1
49.8 (≈ 142 µM)	CN(Cc1cccc(F)c1)C(=O)c1ccc2c(=O)n3c(nc2c1)CCC3
2.6 (≈ 8.19 µM)	N/C(Cc1ccc([N+](=O)[O-])cc1)=N\OC(=O)c1ccccc1F
4.4 (≈ 11 µM)	O=C(CN1C(=O)NC2(CCc3ccccc32)C1=O)c1ccc(Br)cc1 (centres undefined)
51.5 (≈ 150 µM)	C/C(N)=C(/C#N)C(=O)COC(=O)c1ccc(OCC2CCCO2)cc1 (centres undefined)
> 43.3	O=C1CCCN1CCCNS(=O)(=O)c1cccs1
> 50.5	O=C(c1ccc(S(=O)(=O)N2CCCC2)cc1)N1CCCCCC1
1.5 (≈ 4.55 µM)	CCCCNC(=O)C(=O)Nc1cc2c3c(c1)CCC(=O)N3CCC2
> 39.3	O=C1C2CC(O)CN2C(=S)N1Cc1ccccc1 (centres undefined)
40.9 (≈ 136 µM)	COc1ccccc1OCC(=O)Nc1ccc2c(c1)OCO2

solubility kinetic [µg/mL]	Structure (SMILES)
> 57.1	CCC(=O)c1ccc(OCC(=O)NC2CCN(Cc3ccccc3)CC2)cc1
> 68.1	COc1ccc(-c2nnc(SCC(=O)Nc3c(Cl)cc(Cl)cc3C(=O)O)o2)cc1
> 53.6	O=C(N1CCOCC1)N1CCN(S(=O)(=O)c2ccc(F)cc2)CC1
39 (≈ 116 µM)	O=C(OCC(=O)N1CCCC1)c1c(Cl)ccc(Cl)c1Cl
> 45.5	Nc1ccc(SCC(=O)Nc2cccc([N+](=O)[O-])c2)cc1
> 47.8	COc1ccccc1C(=O)NC(=O)CSc1cccc[n+]1[O-]
34.8 (≈ 130 µM)	O=C(O)c1ccc(Cl)c(NCc2cccs2)c1
1.5 (≈ 4.51 µM)	Cc1cccc(NS(=O)(=O)c2ccc3c(c2)oc(=O)n3C)c1C
49.2 (≈ 138 µM)	COc1cccc(CN2CCN(Cc3ccc(O)cc3)CC2CCO)c1 (centres undefined)
50.6 (≈ 146 µM)	Cn1c(NCCO)nc2c1c(=O)n(Cc1ccc(F)cc1)c(=O)n2C
36.5 (≈ 138 µM)	Cc1ccccc1CC(=O)N1CCCc2ccccc21
26.9 (≈ 68.5 µM)	O=C(COC(=O)[C@@H]1CCCN1C(=O)c1cccs1)Nc1cccc(Cl)c1
10.7 (≈ 33.5 µM)	O=C(CSc1nc2c(c(=O)[nH]1)CCC2)Nc1ccc(F)cc1
4	CC1CCN(Cc2cc(=O)oc3ccc(C(C)C)cc23)CC1.Cl
1.6 (≈ 4.65 µM)	Cc1cccc(NC(=O)c2ccc3c(c2)CCN3S(C)(=O)=O)c1C
> 47.5	O=C(NCCc1csc(-c2cccc(F)c2)n1)c1ccco1
10.5 (≈ 21.1 µM)	O=C(COC(=O)c1ccc(C(F)(F)F)cc1)Nc1cccc(S(=O)(=O)NC2=NCCCCC2)c1
1.4 (≈ 4.99 µM)	O=C(c1cc2cc(F)ccc2[nH]1)N1CCc2ccccc21
> 64.4	NS(=O)(=O)c1ccc(CCNC(=O)COC(=O)CCc2c[nH]c3ccccc23)cc1
3.2 (≈ 6.2 µM)	COc1ccc(N(C)S(=O)(=O)c2cccc(C(=O)OCC(=O)c3c(N)n(C)c(=O)n(C)c3=O)c2)cc1
1 (≈ 3.02 µM)	O=S(=O)(c1cc(Br)c(Cl)s1)N1CCCC1
46.8 (≈ 135 µM)	CC1CN(C(=O)CS(=O)(=O)Cc2ccc(Cl)cc2)CC(C)O1 (centres undefined)
> 65.9	CCOc1cc(N2CCOCC2)c(OCC)cc1NC(=O)CSc1nnc(N)s1
